{"source": "patent US20210130312A1", "about": "“INHIBITORS OF EYA3-PROTEIN TYROSINE PHOSPHATASE IN DNA DAMAGE REPAIR SIGNALING OF PULMONARY ARTERIAL HYPERTENSION” (CHILDREN'S HOSPITAL MEDICAL CENTER, priority 2018, published 2021)", "key": {"[1]": {"system": "γ-H2AX and 53BP1 foci in PASMC", "test": "γ-H2AX and 53BP1 staining (DDR) in lungs from rats subject to the SuHx protocol", "assay_type": "in vivo, rat", "details": "lungs of SuHx rats treated with EYA-PTP inhibitor", "description": "γ-H2AX foci report on the existence of DSBs, and the assembly of functional DDR complexes is characterized by the presence of 53BP1 foci. Rats subject to the SuHx protocol show increased γ-H2AX and 53BP1 staining in both PAEC and PASMC, likely as a result of oxidative stress. Rats treated with EYA-PTP inhibitor BZ had reduced γ-H2AX staining, as well as reduced 53BP1 foci formation in PASMC."}, "[2]": {"system": "Sugen-Hypoxia (SuHx) rat model", "test": "Sugen-Hypoxia (SuHx) rat model of PAH: RVSP by right heart catheterization, Fulton's index, PV remodeling", "assay_type": "in vivo", "experimental": "Sugen-Hypoxia (SuHx) rat model was used where a single administration of the VEGF inhibitor SU-5416 is followed by 3 weeks of hypoxia (10% O2) and PAH develops between 3-5 weeks after rats (adult Sprague-Daley males) are returned to room air. To test the effect of EYA-PTP inhibition on the development of PAH, benzarone (BZ) was administered every 3 days for 5 weeks after return to room air. The rats were maintained for a further 3 weeks in room air and then right ventricular systolic pressure (RVSP) measured by right heart catheterization. The increase in RVSP in BZ-treated rats was 32% less in BZ-treated rats than in vehicle-treated rats. Fulton's index (right ventricle/left ventricle plus septum weight) was also lower (by 28% relative to vehicle-treated controls) in BZ-treated animals indicating reduced RV hypertrophy."}, "[3]": {"details": "rat SuHx model of PH, statement in words"}}}
{"smiles": "CCc1oc2ccccc2c1C(=O)c1ccc(O)cc1", "note": "[BZ, benzarone]", "values": [{"measurement": "53BP1 foci formation in PASMC", "setting": "[1]", "value": "reduced"}, {"measurement": "γ-H2AX staining", "setting": "[1]", "value": "reduced"}, {"measurement": "increase in RVSP, less than in vehicle-treated rats", "setting": "[2]; SuHx rats, administered every 3 days for 5 weeks after return to room air, measured after a further 3 weeks in room air", "value": 32, "unit": "%"}, {"measurement": "Fulton's index (right ventricle/left ventricle plus septum weight), lower relative to vehicle-treated controls", "setting": "[2]; SuHx rats, same regimen, indicates reduced RV hypertrophy", "value": 28, "unit": "%"}, {"measurement": "PV remodeling", "setting": "[2]; [3]", "value": "effectively reduces"}, {"measurement": "RVSP", "setting": "[2]; [3]", "value": "effectively reduces"}]}
